Data reported in patent publication US7282347B2, “Method for extracting quantitative information relating to interactions between cellular components” (Fisher Bioimage APS, priority 2000, dated 2007).
“Also recorded” adds a separate entry of the source. Where two headings read alike, the source gives them in different places.

Columns and labels:
[1] = test system: PKAcat-GFP; assay: forskolin induced PKAcat-GFP translocation quantified by extraction procedure, FLIPR; assay type: cell-based; settings: Homo sapiens
Procedure: Upon increase in cellular cAMP (e.g. by stimulation of adenylate cyclase activity by forskolin) PKAcat dissociates from its regulatory subunits and spots “dissolves” into the cytosol. The total GFP intensity measured after removing cytosolic PKAcat-GFP through the extraction procedure is indicative of the level of non-activated, non-dissociated PKAcat.
In this example the extraction procedure is used to quantify a forskolin dose response in a PKAcat-GFP assay.
Cells are treated with forskolin in various conc. for 15 min. (remove spots). Cells are extracted (Formalin 0.2%/Triton-x 0.2%). Signal is read in FLIPR.
Dose response on the effect of forskolin to stimulate PKA translocation.

[2] = target: T1, HSPDE4A4-SosA anchor probe and hGrb2-EGFP detectable probe (Homo sapiens, UniProt P27815+Q07890); assay: redistribution trap: CHO cells co-transfected with HSPDE4A4-SosA anchor probe and hGrb2-EGFP detectable probe; assay type: cell-based; settings: 10 μM RP73401 for 75 minutes in presence of 10 micromolar rolipram
T1 construct: expressed in transfected cells; host or cells: CHO
T1 sequence (P27815+Q07890 fused): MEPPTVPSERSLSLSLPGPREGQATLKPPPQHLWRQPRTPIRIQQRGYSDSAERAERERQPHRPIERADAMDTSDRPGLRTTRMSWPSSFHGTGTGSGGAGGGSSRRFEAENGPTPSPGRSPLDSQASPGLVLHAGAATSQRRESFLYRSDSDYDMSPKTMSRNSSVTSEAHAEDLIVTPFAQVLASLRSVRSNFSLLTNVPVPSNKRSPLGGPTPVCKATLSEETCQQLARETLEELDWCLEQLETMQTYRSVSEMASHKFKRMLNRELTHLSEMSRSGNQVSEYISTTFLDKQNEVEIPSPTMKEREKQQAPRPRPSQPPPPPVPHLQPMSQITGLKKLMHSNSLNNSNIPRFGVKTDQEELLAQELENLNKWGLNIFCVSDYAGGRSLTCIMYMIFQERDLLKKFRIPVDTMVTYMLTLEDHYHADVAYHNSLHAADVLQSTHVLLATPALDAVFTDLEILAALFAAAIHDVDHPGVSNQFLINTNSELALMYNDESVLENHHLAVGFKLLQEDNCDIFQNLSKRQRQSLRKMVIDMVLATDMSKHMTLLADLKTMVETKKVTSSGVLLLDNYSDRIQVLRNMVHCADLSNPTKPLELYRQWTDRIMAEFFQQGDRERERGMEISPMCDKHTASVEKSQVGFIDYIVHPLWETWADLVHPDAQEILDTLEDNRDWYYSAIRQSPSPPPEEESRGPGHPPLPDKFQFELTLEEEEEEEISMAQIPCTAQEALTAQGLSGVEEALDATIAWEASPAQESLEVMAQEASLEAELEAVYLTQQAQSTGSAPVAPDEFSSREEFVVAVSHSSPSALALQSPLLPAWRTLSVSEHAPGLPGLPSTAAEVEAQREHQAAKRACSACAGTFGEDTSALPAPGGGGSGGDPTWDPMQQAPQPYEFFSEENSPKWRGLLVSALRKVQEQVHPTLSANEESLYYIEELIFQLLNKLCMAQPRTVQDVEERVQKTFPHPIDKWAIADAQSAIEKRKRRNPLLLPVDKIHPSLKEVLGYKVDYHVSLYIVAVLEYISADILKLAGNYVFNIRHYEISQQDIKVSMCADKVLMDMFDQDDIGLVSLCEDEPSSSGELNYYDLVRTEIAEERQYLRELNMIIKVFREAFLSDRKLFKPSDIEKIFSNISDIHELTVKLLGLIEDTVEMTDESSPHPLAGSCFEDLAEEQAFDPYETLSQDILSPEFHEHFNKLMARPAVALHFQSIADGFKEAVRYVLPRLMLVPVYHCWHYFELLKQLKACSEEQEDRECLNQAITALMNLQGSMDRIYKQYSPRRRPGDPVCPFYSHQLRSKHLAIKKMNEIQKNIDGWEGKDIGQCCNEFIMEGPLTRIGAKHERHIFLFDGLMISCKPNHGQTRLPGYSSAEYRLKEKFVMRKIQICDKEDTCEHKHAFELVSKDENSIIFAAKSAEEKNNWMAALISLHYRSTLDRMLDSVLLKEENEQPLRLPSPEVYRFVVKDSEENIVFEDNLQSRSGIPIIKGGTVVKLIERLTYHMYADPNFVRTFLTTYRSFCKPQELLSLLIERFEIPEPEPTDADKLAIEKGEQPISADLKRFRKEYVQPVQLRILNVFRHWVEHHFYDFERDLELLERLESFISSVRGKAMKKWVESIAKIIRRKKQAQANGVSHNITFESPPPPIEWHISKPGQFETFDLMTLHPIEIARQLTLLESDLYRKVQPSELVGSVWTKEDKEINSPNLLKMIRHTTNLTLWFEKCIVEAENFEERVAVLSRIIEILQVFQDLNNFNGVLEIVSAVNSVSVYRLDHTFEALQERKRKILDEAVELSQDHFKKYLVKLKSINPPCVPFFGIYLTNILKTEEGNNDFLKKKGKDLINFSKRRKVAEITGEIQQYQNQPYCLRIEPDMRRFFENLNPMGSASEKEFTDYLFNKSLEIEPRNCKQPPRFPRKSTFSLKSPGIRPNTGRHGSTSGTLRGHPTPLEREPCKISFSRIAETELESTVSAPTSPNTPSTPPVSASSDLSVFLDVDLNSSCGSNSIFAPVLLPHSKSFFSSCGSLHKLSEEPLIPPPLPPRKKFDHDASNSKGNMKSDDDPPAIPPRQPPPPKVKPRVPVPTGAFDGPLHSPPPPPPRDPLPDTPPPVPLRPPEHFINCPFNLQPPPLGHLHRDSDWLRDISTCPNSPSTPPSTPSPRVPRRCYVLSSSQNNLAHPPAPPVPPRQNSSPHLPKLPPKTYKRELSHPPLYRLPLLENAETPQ
T1 sequence (P62993 whole entry partner): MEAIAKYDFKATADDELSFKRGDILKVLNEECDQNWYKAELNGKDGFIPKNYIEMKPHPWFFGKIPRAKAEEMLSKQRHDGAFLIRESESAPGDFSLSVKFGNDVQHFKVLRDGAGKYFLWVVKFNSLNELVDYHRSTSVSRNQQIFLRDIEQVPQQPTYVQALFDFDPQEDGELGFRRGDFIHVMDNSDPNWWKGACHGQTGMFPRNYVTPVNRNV
Description: Sos is a guanine nucleotide exchange factor responsible for activation Ras-like GTPases, Grb2 an adaptor component responsible for recuiting Sos to the activated receptor. In this example the anchor probe is based on HSPDE4A4. CHO cells are stably co-transfected with anchor probe HSPDE4A4-SosA and “detectable” probe hGrb2-EGFP as described in Example 2 and Example 3. The anchor probe is selected for with zeocin, and the detectable probe with neomycin (G418). […] The transfected cells are a mixed non-clonal population.
The transfected cells are a mixed non-clonal population.

[3] = target: T2, Cys1 domain of PKCgamma (Cys1-EGFP) (Homo sapiens, UniProt P05129); assay: redistribution of Cys1-EGFP to the plasma membrane in CHO cells; assay type: cell-based; settings: 100 nM PMA, 5 minutes
T2 construct: the 90 N-terminal amino acids of human PKCgamma (the Cys1 domain); expressed in transfected cells; host or cells: CHO
Procedure: Time-lapse images of CHO cells expressing Cys1-EGFP, the fusion of EGFP to the C-terminal of the cys1 domain from human protein kinase C isoform gamma, before (a) and after 5 minutes treatment with 100 nM PMA.

[4] = target: T3, Cys1-hGrb2 anchor probe and EGFP-Sos-Cterm detectable probe (Homo sapiens, UniProt P05129+P62993); assay: redistribution trap: CHO cells expressing Cys1-hGrb2 anchor probe and EGFP-Sos-Cterm detectable probe; assay type: cell-based; settings: 100 nM PMA, 5 minutes
T3 construct: the 90 N-terminal amino acids of human PKCgamma (the Cys1 domain); expressed in transfected cells; host or cells: CHO
Procedure: (§1) This example describes the creation of another cell line suitable for screening compounds against the interaction between Grb2 and the C-terminal sequence of Sos (amino acids 1067 to 1332 of Sos). This is the same interaction pair described in Example 6, except that the anchor probe is based upon the Cys1 domain of protein kinase C isoform gamma, and therefore locates in unstimulated cells throughout the cytoplasm and nucleus. When these cells are treated with 100 nM PMA the anchor probe redistributes to the plasma membrane, and if an interaction occurs between anchor and detectable probes, the GFP fluorescence will also be seen to redistribute to the plasma membrane. […] Treatment with PMA is used to confirm that an interaction between anchor and detectable probes occurs in this system, since redistribution of fluorescence to the plasma membrane can only occur if interaction of the two probes has first taken place. This can be checked in CHO cells transfected with EGFP-Sos-Cterm alone, where PMA has no effect on the distribution of fluorescence.
(§2) CHO cells are stably co-transfected with the anchor probe Cys1-hGrb2 and the GFP-labelled detectable probe EGFP-Sos-Cterm as described in Example 2 and Example 6. […] The majority of cells in before PMA treatment have a rather general cytoplasmic and nuclear distribution of fluorescence. […]

[5] = target: T4, Cys1-hGrb2 anchor probe and EGFP-Sos-Cterm detectable probe (Homo sapiens, UniProt P62993); assay: as above; assay type: cell-based; settings: control cells with EGFP-Sos-Cterm alone, PMA
T4 construct: the 90 N-terminal amino acids of human PKCgamma (the Cys1 domain); expressed in transfected cells; host or cells: CHO
T4 sequence (P62993 whole entry, looked up, the tested form may be a part): as the sequence (P62993 whole entry partner) above
Procedure: as §1, §2

[6] = target: PDE4A4 (Homo sapiens, UniProt P27815); assay: formation of dense aggregates (spots) of PDE4A4 in transfected CHO cells; settings: read-out: EC50 for formation of dense PDE4A4 aggregates (spots) in the cytoplasm
PDE4A4, sequence (P27815 whole entry): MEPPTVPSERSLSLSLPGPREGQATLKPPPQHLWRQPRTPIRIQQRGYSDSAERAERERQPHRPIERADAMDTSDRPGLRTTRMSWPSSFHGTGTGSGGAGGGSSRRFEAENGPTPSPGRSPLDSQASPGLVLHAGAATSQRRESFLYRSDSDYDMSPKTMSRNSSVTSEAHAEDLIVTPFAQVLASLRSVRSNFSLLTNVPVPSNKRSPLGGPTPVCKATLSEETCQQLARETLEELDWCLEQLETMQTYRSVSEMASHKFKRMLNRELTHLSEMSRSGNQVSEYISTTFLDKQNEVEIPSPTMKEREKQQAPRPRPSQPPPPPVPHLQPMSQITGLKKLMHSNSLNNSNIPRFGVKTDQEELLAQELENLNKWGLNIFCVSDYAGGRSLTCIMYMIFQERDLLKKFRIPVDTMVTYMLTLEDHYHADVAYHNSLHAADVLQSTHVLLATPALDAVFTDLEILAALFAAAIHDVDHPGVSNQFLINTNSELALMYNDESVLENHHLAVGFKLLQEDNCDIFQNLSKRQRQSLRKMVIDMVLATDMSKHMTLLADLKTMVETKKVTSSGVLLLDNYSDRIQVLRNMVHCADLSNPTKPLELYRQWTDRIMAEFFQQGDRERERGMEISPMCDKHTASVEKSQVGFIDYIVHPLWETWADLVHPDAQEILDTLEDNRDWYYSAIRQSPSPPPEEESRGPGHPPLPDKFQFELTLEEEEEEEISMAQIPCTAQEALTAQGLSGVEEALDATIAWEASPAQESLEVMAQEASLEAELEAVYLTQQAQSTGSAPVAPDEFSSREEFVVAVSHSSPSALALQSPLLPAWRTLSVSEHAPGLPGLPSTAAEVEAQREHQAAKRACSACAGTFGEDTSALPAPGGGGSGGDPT
Procedure: The amount of fluorescent spots and other accumulations of a transfected probe in a population of cells can be imaged and quantified in an automated fashion to yield a measure of mean number of spots per cell. For this purpose cells are cultured to near 80% to 90% confluence in coverglass chambers or plastic 96-well plates, given the relevant treatment and allowed to respond. At the end of the response period, cells are chemically fixed in 4% formaldehyde buffer (Lillies fixative buffer, pH7.4: Bie and Berntsen A/S, Denmark) for 30 minutes to 2 hours, and then washed three times in phosphate buffered saline (PBS, Life Technologies, Denmark). An alternative simultaneous fixation+permeabilisation method, useful to remove non-localised (i.e. mobile) GFP probe from the cytoplasm, involves a single fixation process incorporating 0.4% to 2% formaldehyde buffer (10% to 50% strength Lillies fixative) plus 0.2% to 1% Triton X-100. The actual concentrations used need to be optimised for the cell type being used; for CHO cells 2% formaldehyde+1% Triton X-100 gives excellent results. The combined fixative+detergent are applied to the cells for 10 to 20 minutes at room temperature. Cells are then washed three times with phosphate buffered saline. […] Fluorescence illumination comes from a 100 W HBO lamp. […]

[7] = test system: CHO cells stably expressing HSPDE4A4B-GFP; assay: cellular cAMP content (kit RPA538) in CHO cells stably expressing HSPDE4A4B-GFP; assay type: cell-based, Chinese hamster; settings: rolipram 0.03 μM to 3 μM, 16 to 18 hours
Procedure: (§3) After the incubation period, cAMP content is measured using a commercial kit from Amersham-Pharmacia Biotech, kit # RPA538, according to the manufacturers instructions.
(§4) The amount of cAMP/well was calculated using regression analysis from a cAMP standrad curve, as recommended by the manufacturers of the assay kit.
(§5) After the incubation period, cAMP content is measured using a commercial kit from Amersham-Pharnacia Biotech, kit # RPA538, according to the manufacturers instructions.
CHO cells stably expressing HSPDE4A4B-GFP (see Example 2), and untransfected CHO cells are seeded into individual wells of a 96-well microtiter plate at a density of 1.2×10^5 cells/well, and cultured for 16 to 18 hours in HAM F-12 medium with glutamax, 100 μg penicillin-streptomycin mixture ml^−1 and 10% FBS. […] After the treatment period, cAMP content is measured using a commercial kit from Amersham-Pharmacia Biotech, kit # RPA538, according to the manufacturers instructions.

[8] = test system: untransfected CHO cells; assay: cellular cAMP content (kit RPA538) in untransfected CHO cells; assay type: cell-based, Chinese hamster
Procedure: as §3, §4, §5
CHO cells stably expressing HSPDE4A4B-GFP (see Example 2), and untransfected CHO cells are seeded into individual wells of a 96-well microtiter plate at a density of 1.2×10^5 cells/well, and cultured for 16 to 18 hours in HAM F-12 medium with glutamax, 100 μg penicillin-streptomycin mixture ml^−1 and 10% FBS. After 16 to 18 hours incubation, cells are treated for 60 minutes with various concentrations of forskolin. After the treatment period, cAMP content is measured using a commercial kit from Amersham-Pharmacia Biotech, kit # RPA538, according to the manufacturers instructions.

## C=C[C@@]1(C)CC(=O)[C@]2(O)[C@@]3(C)[C@@H](O)CCC(C)(C)[C@@H]3[C@H](O)[C@H](OC(C)=O)[C@@]2(C)O1 [forskolin]
[1]; 0.25 h, forskolin 15 min, extraction Formalin 0.2%/Triton-x 0.2%, FLIPR, read-out: ED50 of forskolin dose response in PKAcat-GFP assay
  EC50: ~3 µM
[1]; FIG. 18 dose response, read-out: calculated EC50 for forskolin to stimulate PKA translocation
  EC50: 3.28 µM

## COc1ccc(C(=O)Nc2c(Cl)cncc2Cl)cc1OC1CCCC1 [RP73401, Piclamilast]
[2]
  effect on rolipram-induced GFP-bright spots: spots disappear; also recorded: dissolves rolipram-induced spots

## CCCCCCCCCCCCCC(=O)O[C@@H]1[C@@H](C)[C@@]2(O)[C@@H](C=C(CO)C[C@]3(O)C(=O)C(C)=C[C@@H]23)[C@@H]2C(C)(C)[C@]12OC(C)=O [PMA, phorbol-12-myristate-13-acetate]
[3]
  redistribution of Cys1-EGFP: redistributes from the cytoplasm and nucleus to the plasma membrane
[4]
  redistribution of EGFP-Sos-Cterm fluorescence: measurable shift in fluorescence to the plasma membrane
[5]
  distribution of fluorescence in CHO cells transfected with EGFP-Sos-Cterm alone: no effect

## O=c1c2cccnc2n(-c2cccc([N+](=O)[O-])c2)c(=O)n1Cc1ccncc1 [RS25344]
[6]
  EC50: 0.02 µM

## COc1ccc(C2CNC(=O)C2)cc1OC1CCCC1 (stereo not shown) [rolipram]
[7]
  cellular cAMP concentration, rolipram treatment: no appreciable increase
[8]; 10 μM rolipram, probably not significant
  cellular cAMP, rolipram 10 μM: slight rise
[8]; rolipram 0.03 μM to 3 μM, 16 to 18 hours
  cellular cAMP concentration, rolipram treatment: no appreciable increase
